Measurements reported in PubChem BioAssay (NCI).
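Assay format: 96-well plates, 48-hour exposure. GI50 = concentration required for 50% inhibition of growth. TGI: concentration producing complete growth inhibition.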

What follows are compounds tested on CCRF-CEM leukemia (assay: NCI anticancer screen, dose series, 48 h).
In the case of `O=C1c2cc3c(cc2-c2c1c1ccc(F)cc1c(=O)n2C[C@H](O)[C@@H](O)[C@H](O)CO)OCO3`, the GI50 was 0.0344 µM and the TGI was 2.18 µM. `C=CC1(CC/C(=C\[N+](=O)[O-])c2ccc(OC)c(OC)c2)OCC(C)(C)CO1` was tested, and the TGI was greater than 100 µM. Work on `CC1(C(=O)O)CCC2(C)CCC3(C)C(=CC(=O)C4C5(C)CCC(O)C(C)(C)C5CCC43C)C2C1` (centres undefined) yielded a TGI of 95.9 µM. Work on `Oc1ccccc1CNCc1nc2ccccc2[nH]1` yielded a TGI greater than 100 µM. Compound `O=[N+]([O-])c1ccc(Cl)cc1N/N=C/c1ccnc2ccccc12` has a TGI greater than 100 µM. `Oc1[nH]c2ccccc2c1N=Nc1nc(-c2ccc(Br)cc2)cs1` showed a TGI of 61.8 µM. Work on `O=C1CCC2(c3ccc(Cl)cc3)Nc3ccncc3N12` (centres undefined) yielded a TGI greater than 10 µM. Work on `C(=C(c1ccc(OC2CCCCO2)cc1)c1ccc(OC2CCCCO2)cc1)c1ccccc1` (centres undefined) yielded a TGI of 6.66 µM. `CC(=O)Oc1cccc2c1C(=O)CCCC2` was tested, and the TGI was greater than 100 µM. In the case of `O=C(c1ccccn1)C1(N2CCCCC2)CCCCC1`, the TGI was greater than 100 µM. Compound `CCN(CC)C(=S)N/N=C/c1cc([N+](=O)[O-])ccc1O` has a TGI of 8.06 µM. `Cc1ccc(NC(=O)CC2Sc3ccccc3NC2=O)cc1C` (centres undefined) showed a TGI of 92.3 µM. `CCOP(=O)(OCC)C(F)(F)c1ccc(CC(NC(=O)OC(C)(C)C)C(=O)O)cc1` (centres undefined) gave a TGI greater than 10 µM. With `COc1ccc(-c2[nH]c3c4c(nc5c(c24)C(=O)CC(C)(C)C5)CC(C)(C)C3)cc1` the TGI was greater than 100 µM. In the case of `c1ccc2c3[nH]c(c2c1)=Nc1ccc(cc1)-c1nc2cc(ccc2o1)N=c1[nH]c(c2ccccc12)=Nc1ccc2nc(oc2c1)-c1ccc(cc1)N=3`, the TGI was greater than 100 µM. Compound `COC(=O)C1=C(C(=O)OC)SC(=C2SCSC3=C2SC(C(=O)OC)=C(C(=O)OC)C32SC3=C(CCCC3)S2)S1` has a TGI greater than 100 µM.

The compounds below were run on MALME-3M melanoma (assay: NCI anticancer screen, dose series, 48 h).
In the case of `O=C1c2cc3c(cc2-c2c1c1ccc(F)cc1c(=O)n2C[C@H](O)[C@@H](O)[C@H](O)CO)OCO3`, the GI50 was 0.185 µM and the TGI was 0.565 µM. `C=CC1(CC/C(=C\[N+](=O)[O-])c2ccc(OC)c(OC)c2)OCC(C)(C)CO1` showed a TGI of 45.5 µM. With `CC1(C(=O)O)CCC2(C)CCC3(C)C(=CC(=O)C4C5(C)CCC(O)C(C)(C)C5CCC43C)C2C1` (centres undefined) the TGI was greater than 100 µM. `COc1cc(S(=O)(=O)Nc2nc(-c3ccc(N4C(=O)C(CC(=O)O)SC4c4cccs4)cc3)cs2)ccc1Cl` (centres undefined) showed a TGI of 72.2 µM. `O=C1CCC2(c3ccc(Cl)cc3)Nc3ccncc3N12` (centres undefined) showed a TGI greater than 10 µM. Work on `C(=C(c1ccc(OC2CCCCO2)cc1)c1ccc(OC2CCCCO2)cc1)c1ccccc1` (centres undefined) yielded a TGI of 2.24 µM. With `CC(=O)Oc1cccc2c1C(=O)CCCC2` the TGI was greater than 100 µM. `CCN(CC)C(=S)N/N=C/c1cc([N+](=O)[O-])ccc1O` was tested, and the TGI was 23.3 µM. Work on `Cc1ccc(NC(=O)CC2Sc3ccccc3NC2=O)cc1C` (centres undefined) yielded a TGI greater than 100 µM. Compound `CCOP(=O)(OCC)C(F)(F)c1ccc(CC(NC(=O)OC(C)(C)C)C(=O)O)cc1` (centres undefined) has a TGI greater than 10 µM. Work on `COc1ccc(-c2[nH]c3c4c(nc5c(c24)C(=O)CC(C)(C)C5)CC(C)(C)C3)cc1` yielded a TGI greater than 100 µM. Compound `COC(=O)C1=C(C(=O)OC)SC(=C2SCSC3=C2SC(C(=O)OC)=C(C(=O)OC)C32SC3=C(CCCC3)S2)S1` has a TGI greater than 100 µM.

These compounds were tested on SN12C renal (assay: NCI anticancer screen, dose series, 48 h).
With `C=CC1(CC/C(=C\[N+](=O)[O-])c2ccc(OC)c(OC)c2)OCC(C)(C)CO1` the TGI was 47.6 µM. `CC1(C(=O)O)CCC2(C)CCC3(C)C(=CC(=O)C4C5(C)CCC(O)C(C)(C)C5CCC43C)C2C1` (centres undefined) gave a TGI greater than 100 µM. Compound `COc1cc(S(=O)(=O)Nc2nc(-c3ccc(N4C(=O)C(CC(=O)O)SC4c4cccs4)cc3)cs2)ccc1Cl` (centres undefined) has a TGI greater than 100 µM. For `Oc1ccccc1CNCc1nc2ccccc2[nH]1`, the TGI was greater than 100 µM. With `O=[N+]([O-])c1ccc(Cl)cc1N/N=C/c1ccnc2ccccc12` the TGI was greater than 100 µM. Compound `Oc1[nH]c2ccccc2c1N=Nc1nc(-c2ccc(Br)cc2)cs1` has a TGI of 83.2 µM. With `O=C1CCC2(c3ccc(Cl)cc3)Nc3ccncc3N12` (centres undefined) the TGI was greater than 10 µM. In the case of `C(=C(c1ccc(OC2CCCCO2)cc1)c1ccc(OC2CCCCO2)cc1)c1ccccc1` (centres undefined), the TGI was 2.47 µM. `CC(=O)Oc1cccc2c1C(=O)CCCC2` showed a TGI greater than 100 µM. Work on `O=C(c1ccccn1)C1(N2CCCCC2)CCCCC1` yielded a TGI greater than 100 µM. With `CCN(CC)C(=S)N/N=C/c1cc([N+](=O)[O-])ccc1O` the TGI was 25.6 µM. `Cc1ccc(NC(=O)CC2Sc3ccccc3NC2=O)cc1C` (centres undefined) showed a TGI greater than 100 µM. `CCOP(=O)(OCC)C(F)(F)c1ccc(CC(NC(=O)OC(C)(C)C)C(=O)O)cc1` (centres undefined) was tested, and the TGI was greater than 10 µM. With `COc1ccc(-c2[nH]c3c4c(nc5c(c24)C(=O)CC(C)(C)C5)CC(C)(C)C3)cc1` the TGI was greater than 100 µM. `NC(=O)C(=Cn1c(=S)[nH]c2ccc([N+](=O)[O-])cc21)C(N)=O` showed a TGI greater than 100 µM. Compound `c1ccc2c3[nH]c(c2c1)=Nc1ccc(cc1)-c1nc2cc(ccc2o1)N=c1[nH]c(c2ccccc12)=Nc1ccc2nc(oc2c1)-c1ccc(cc1)N=3` has a TGI greater than 100 µM. `COC(=O)C1=C(C(=O)OC)SC(=C2SCSC3=C2SC(C(=O)OC)=C(C(=O)OC)C32SC3=C(CCCC3)S2)S1` showed a TGI greater than 100 µM.

Each compound was assayed on SK-MEL-5 melanoma (assay: NCI anticancer screen, dose series, 48 h).
Compound `O=C1c2cc3c(cc2-c2c1c1ccc(F)cc1c(=O)n2C[C@H](O)[C@@H](O)[C@H](O)CO)OCO3` has a GI50 of 0.0568 µM and a TGI of 0.183 µM. Compound `C=CC1(CC/C(=C\[N+](=O)[O-])c2ccc(OC)c(OC)c2)OCC(C)(C)CO1` has a TGI of 87.2 µM. `CC1(C(=O)O)CCC2(C)CCC3(C)C(=CC(=O)C4C5(C)CCC(O)C(C)(C)C5CCC43C)C2C1` (centres undefined) gave a TGI of 54.3 µM. For `COc1cc(S(=O)(=O)Nc2nc(-c3ccc(N4C(=O)C(CC(=O)O)SC4c4cccs4)cc3)cs2)ccc1Cl` (centres undefined), the TGI was greater than 100 µM. `Oc1ccccc1CNCc1nc2ccccc2[nH]1` showed a TGI of 65.6 µM. Compound `O=[N+]([O-])c1ccc(Cl)cc1N/N=C/c1ccnc2ccccc12` has a TGI greater than 100 µM. For `Oc1[nH]c2ccccc2c1N=Nc1nc(-c2ccc(Br)cc2)cs1`, the TGI was 33.4 µM. With `C(=C(c1ccc(OC2CCCCO2)cc1)c1ccc(OC2CCCCO2)cc1)c1ccccc1` (centres undefined) the TGI was 1.78 µM. `CC(=O)Oc1cccc2c1C(=O)CCCC2` gave a TGI greater than 100 µM. `O=C(c1ccccn1)C1(N2CCCCC2)CCCCC1` was tested, and the TGI was greater than 100 µM. For `CCN(CC)C(=S)N/N=C/c1cc([N+](=O)[O-])ccc1O`, the TGI was 8.94 µM. For `Cc1ccc(NC(=O)CC2Sc3ccccc3NC2=O)cc1C` (centres undefined), the TGI was greater than 100 µM. With `CCOP(=O)(OCC)C(F)(F)c1ccc(CC(NC(=O)OC(C)(C)C)C(=O)O)cc1` (centres undefined) the TGI was greater than 10 µM. With `COc1ccc(-c2[nH]c3c4c(nc5c(c24)C(=O)CC(C)(C)C5)CC(C)(C)C3)cc1` the TGI was greater than 100 µM. With `NC(=O)C(=Cn1c(=S)[nH]c2ccc([N+](=O)[O-])cc21)C(N)=O` the TGI was greater than 100 µM. `c1ccc2c3[nH]c(c2c1)=Nc1ccc(cc1)-c1nc2cc(ccc2o1)N=c1[nH]c(c2ccccc12)=Nc1ccc2nc(oc2c1)-c1ccc(cc1)N=3` gave a TGI greater than 100 µM. Work on `COC(=O)C1=C(C(=O)OC)SC(=C2SCSC3=C2SC(C(=O)OC)=C(C(=O)OC)C32SC3=C(CCCC3)S2)S1` yielded a TGI greater than 100 µM.

Each compound was assayed on MOLT-4 leukemia (assay: NCI anticancer screen, dose series, 48 h).
Compound `O=C1c2cc3c(cc2-c2c1c1ccc(F)cc1c(=O)n2C[C@H](O)[C@@H](O)[C@H](O)CO)OCO3` has a GI50 of 0.0334 µM and a TGI of 0.426 µM. Compound `C=CC1(CC/C(=C\[N+](=O)[O-])c2ccc(OC)c(OC)c2)OCC(C)(C)CO1` has a TGI of 6.05 µM. For `CC1(C(=O)O)CCC2(C)CCC3(C)C(=CC(=O)C4C5(C)CCC(O)C(C)(C)C5CCC43C)C2C1` (centres undefined), the TGI was greater than 100 µM. In the case of `COc1cc(S(=O)(=O)Nc2nc(-c3ccc(N4C(=O)C(CC(=O)O)SC4c4cccs4)cc3)cs2)ccc1Cl` (centres undefined), the TGI was 64.6 µM. `Oc1ccccc1CNCc1nc2ccccc2[nH]1` was tested, and the TGI was greater than 100 µM. With `O=[N+]([O-])c1ccc(Cl)cc1N/N=C/c1ccnc2ccccc12` the TGI was greater than 100 µM. For `Oc1[nH]c2ccccc2c1N=Nc1nc(-c2ccc(Br)cc2)cs1`, the TGI was greater than 100 µM. In the case of `O=C1CCC2(c3ccc(Cl)cc3)Nc3ccncc3N12` (centres undefined), the TGI was greater than 10 µM. For `C(=C(c1ccc(OC2CCCCO2)cc1)c1ccc(OC2CCCCO2)cc1)c1ccccc1` (centres undefined), the TGI was greater than 100 µM. Compound `CC(=O)Oc1cccc2c1C(=O)CCCC2` has a TGI greater than 100 µM. Work on `O=C(c1ccccn1)C1(N2CCCCC2)CCCCC1` yielded a TGI greater than 100 µM. In the case of `CCN(CC)C(=S)N/N=C/c1cc([N+](=O)[O-])ccc1O`, the TGI was 25.1 µM. `Cc1ccc(NC(=O)CC2Sc3ccccc3NC2=O)cc1C` (centres undefined) gave a TGI greater than 100 µM.
